Measured values as given in US20150094354A1, “METHOD FOR TREATING CELL PROLIFERATIVE DISORDER BY INHIBITING C1GALT1 EXPRESSION” (National Taiwan University, priority 2013, published 2015).

How the values were obtained:
Type in all cases: cell-based, human
MET [1] = test: VVA lectin pull-down of MET
Method: Vicia villosa agglutinin (VVA)- and peanut agglutinin (PNA) lectin-conjugated agarose beads, fluorescein isothiocyanate (FITC)-, and biotinylated VVA were purchased from Vector Laboratories. Recombinant EGF, HGF, IGF-I, and protein deglycosylation kits were purchased from Sigma. Protein deglycosylation is carried out using an Enzymatic Protein Deglycosylation Kit (Sigma). Briefly, cell lysates are treated with neuraminidase or PNGase F at 37° C. for 1 hour. For lectin blotting, […] of cell lysate is separated by an 8% SDS-PAGE, transferred to polyvinylidene difluoride membrane (Millipore), and blotted with biotinylated VVA (1:10,000). For lectin pull-down assay, cell lysates (0.3 mg) are incubated with or without deglycosylation enzymes and then applied to VVA- or PNA-conjugated agarose beads at 4° C. for 16 hours. The pulled down proteins are analyzed by Western blotting.
To investigate whether C1GALT1 can modify O-glycans on MET, VVA binding to MET was analyzed in hepatocellular carcinoma cells with C1GALT1 knockdown or overexpression. […] Cell lysates were treated with (+) or without (−) neuraminidase and then pulled down by VVA agarose beads. The pulled down glycoproteins were immunoblotted (IB) with anti-MET antibody. These findings indicate that C1GALT1 can modify O-glycans on MET in hepatocellular carcinoma cells. […]

PLC5 cells = test: Trypan blue exclusion cell viability assay; settings: PLC5, up to 72 hours
Method: Cells (4×10^4) are seeded in each well of 6-well plates with DMEM containing 10% FBS. Viable cells are analyzed by Trypan blue exclusion assay at 0, 24, 48, and 72 hours. Cell proliferation is evaluated by immunostaining with anti-Ki67 antibody (1:1000; Vector Laboratories). For cell-cycle analysis, 1×10^6 cells are stained with propidium iodide (Sigma) for 30 minutes. The percentages of cells in G1, S, and G2M phases are analyzed by flow cytometry (Becton Dickinson).
FIGS. 9A-9B are schematic diagrams illustrating the effects of C1GALT1 on the cell viability of hepatocellular carcinoma cells in vitro in accordance with an embodiment of the present invention. Cell viability of HA22T, PLC5, Sk-Hep1, and HCC36 cells was analyzed by Trypan blue exclusion assays at different time points for 72 hours. The results were standardized by the cell number at 0 hour. Data are represented as means±SD from three independent experiments. *, P<0.05; **, P<0.01.

MET [2] = test: HGF-induced dimerization of MET (BS3 cross-linking, Western blotting); settings: 25 ng/mL HGF
Method: MET is also called hepatocyte growth factor receptor (HGFR). The MET gene is an important protooncogene in a variety of human cancers. To analyze dimerization of MET, hepatocellular carcinoma cells are incubated with or without 25 ng/mL of human HGF in DMEM on ice for 5 minutes. Cross-linker Bis(sulfosuccinimidyl) suberate (BS3, 0.25 mmol/L, Thermo Scientific) is added to cells and reacted at 37° C. for 5 minutes. Cells are then transferred on ice for 10 minutes. Reactions are blocked by adding 50 mmol/L of Tris-HCl (pH 7.4). Cell lysates are separated by 6% SDS-PAGE and immunoblotted with anti-MET antibody.
Because HGF-induced dimerization of MET is an initial and crucial step for the activation of MET signaling, whether C1GALT1 could affect MET dimerization was analyzed. FIGS. 19A-19B are autoradiograms illustrating the effects of C1GALT1 on dimerization of MET in hepatocellular carcinoma cells in accordance with an embodiment of the present invention. Hepatocellular carcinoma cells were starved for 5 hours and then treated with (+) or without (−) 25 ng/mL of HGF. Cell lysates were cross-linked by BS3 and then analyzed by Western blotting with anti-MET antibody. The arrows indicate the dimer (D) of MET, and the arrowheads indicate the monomer (M). Markers of molecular weight are shown on the left. GAPDH is an internal control.

Row | Substance | VVA binding to MET (MET [1]; HA22T cells) | VVA binding to MET (MET [1]; PLC5 cells) | cell viability (PLC5 cells) | HGF-induced dimerization of MET (MET [2]; HA22T cells) | HGF-induced dimerization of MET (MET [2]; PLC5 cells)
1 | C1GALT1 si-1: siRNA oligonucleotide against C1GALT1, presumably SEQ ID NO: 1, UUAGUAUACGUUCAGGUAAGGUAGG (chemistry not given here) | increased | increased | significantly suppressed | suppressed | suppressed
2 | C1GALT1 si-2: siRNA oligonucleotide against C1GALT1, presumably SEQ ID NO: 2, UUAUGUUGGCUAGAAUCUGCAUUGA (chemistry not given here) | – | – | significantly suppressed | – | –
